Activity calls are given as the source filed them. No cut-off for these calls is given here.
What was measured:
Ovis aries [1] = species on record: Ovis aries; assay: Inhibition of sheep brain dynamin 1 at 100 uM by malachite green GTPase assay
[2] = Inhibition of sheep brain dynamin 1 by malachite green GTPase assay; set-up: species or system Ovis aries
U2OS = assay: Cytotoxicity against human U2OS cells assessed as change in cell morphology after 30 mins; assay type: cell-based; details: 0.5 h
Dynamin-1 = molecular target: T1, Dynamin-1 (Rattus norvegicus, UniProt P21575); assay: Inhibition of dynamin 1-mediated synaptic vesicle endocytosis in Sprague-Dawley rat synaptosomes assessed as uptake of FM 4-64 dye after 30 mins by automated acquisition and analysis system; assay type: subcellular, Brain
T1 sequence (P21575 whole entry): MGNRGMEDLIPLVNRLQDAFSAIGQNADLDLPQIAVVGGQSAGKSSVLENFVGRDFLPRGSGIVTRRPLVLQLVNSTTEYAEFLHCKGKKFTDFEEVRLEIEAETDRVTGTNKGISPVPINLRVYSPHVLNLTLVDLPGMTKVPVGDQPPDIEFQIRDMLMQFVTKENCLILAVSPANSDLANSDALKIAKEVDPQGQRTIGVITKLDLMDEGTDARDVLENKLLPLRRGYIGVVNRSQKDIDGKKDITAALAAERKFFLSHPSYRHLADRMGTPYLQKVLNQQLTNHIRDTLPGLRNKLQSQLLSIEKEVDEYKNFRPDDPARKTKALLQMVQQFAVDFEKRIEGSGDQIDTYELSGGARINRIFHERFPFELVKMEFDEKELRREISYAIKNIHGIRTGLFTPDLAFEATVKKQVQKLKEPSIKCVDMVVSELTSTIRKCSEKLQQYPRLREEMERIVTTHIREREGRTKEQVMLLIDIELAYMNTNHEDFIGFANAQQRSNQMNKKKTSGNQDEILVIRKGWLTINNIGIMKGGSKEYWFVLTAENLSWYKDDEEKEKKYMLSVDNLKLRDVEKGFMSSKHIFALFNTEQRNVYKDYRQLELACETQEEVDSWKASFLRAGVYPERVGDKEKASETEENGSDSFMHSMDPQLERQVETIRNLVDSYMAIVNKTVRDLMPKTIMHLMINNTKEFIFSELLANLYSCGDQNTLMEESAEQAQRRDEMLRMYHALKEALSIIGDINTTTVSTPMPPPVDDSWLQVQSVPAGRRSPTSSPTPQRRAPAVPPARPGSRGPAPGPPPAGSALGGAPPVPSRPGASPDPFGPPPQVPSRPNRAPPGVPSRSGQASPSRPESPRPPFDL

Ovis aries [3] = species on record: Ovis aries; assay: Inhibition of sheep brain dynamin 1 at 300 uM by malachite green GTPase assay

inhibition (Ovis aries [1]) [%] | IC50 [2] [µM] | SMILES | also measured
< 50 | > 300 | N=c1oc2ccccc2cc1C(=O)NCCCNC(=O)c1cc2ccccc2oc1=N | 
< 50 |  | N=c1oc2c(O)cccc2cc1C(=O)NCCNC(=O)c1cc2cccc(O)c2oc1=N | 
< 50 | > 300 | N=c1oc2ccccc2cc1C(=O)NCCCCNC(=O)c1cc2ccccc2oc1=N | 
< 50 |  | N=c1oc2cc(O)ccc2cc1C(=O)NCCCCCNC(=O)c1cc2ccc(O)cc2oc1=N | 
< 50 | > 300 | N=c1oc2ccccc2cc1C(=O)NCCCCCNC(=O)c1cc2ccccc2oc1=N | 
 | 82 | N=c1oc2cc(O)c(O)cc2cc1C(=O)NCCCCCCNC(=O)c1cc2cc(O)c(O)cc2oc1=N | 
 | 36.6 | N=c1oc2c(O)cccc2cc1C(=O)NCCCNC(=O)c1cc2cccc(O)c2oc1=N | Activity (U2OS): Non-toxic; IC50 (Dynamin-1): Not Active
 | 0.26 | N=c1oc2cc(O)c(O)cc2cc1C(=O)NCCCNC(=O)c1cc2cc(O)c(O)cc2oc1=N | Activity (U2OS): Non-toxic; IC50 (Dynamin-1; read-out: IC50): 40.4 µM
 | 100 | N=c1oc2cc(O)ccc2cc1C(=O)NCCNC(=O)c1cc2ccc(O)cc2oc1=N | inhibition (Ovis aries [3]): inactive
< 50 |  | N=c1oc2c(O)cccc2cc1C(=O)NCCCCCCNC(=O)c1cc2cccc(O)c2oc1=N | 
 | 36 | N#C/C(=C\c1ccc(C2(C(F)(F)F)N=N2)cc1)C(=O)NCCCNC(=O)/C(C#N)=C/c1ccc(O)c(O)c1 | 
< 50 |  | N=c1oc2cc(O)ccc2cc1C(=O)NCCCCNC(=O)c1cc2ccc(O)cc2oc1=N | 
 | 51 | N#C/C(=C\c1ccc(O)cc1)C(=O)NCCCNC(=O)/C(C#N)=C/c1ccc(O)c(O)c1 | 
 | 146 | N#C/C(=C\c1ccccc1)C(=O)NCCCNC(=O)/C(C#N)=C/c1ccc(O)c(O)c1 | 
 | 17 | N=c1oc2cc(O)c(O)cc2cc1C(=O)NCCCCCNC(=O)c1cc2cc(O)c(O)cc2oc1=N | 
 | 0.33 | N=c1oc2c(O)c(O)ccc2cc1C(=O)NCCNC(=O)c1cc2ccc(O)c(O)c2oc1=N | IC50 (Dynamin-1): Not Active
 | 17.3 | N=c1oc2cc(O)ccc2cc1C(=O)NCCCNC(=O)c1cc2ccc(O)cc2oc1=N | IC50 (Dynamin-1; read-out: IC50): 66.1 µM
 | 19 | N=c1oc2c(O)c(O)ccc2cc1C(=O)NCCCCCNC(=O)c1cc2ccc(O)c(O)c2oc1=N | 
 | 3.2 | N=c1oc2cc(O)c(O)cc2cc1C(=O)NCCCCNC(=O)c1cc2cc(O)c(O)cc2oc1=N | 
< 50 |  | N=c1oc2c(O)cccc2cc1C(=O)NCCCCCNC(=O)c1cc2cccc(O)c2oc1=N | 
 | 0.45 | N=c1oc2c(O)c(O)ccc2cc1C(=O)NCCCNC(=O)c1cc2ccc(O)c(O)c2oc1=N | Activity (U2OS): Non-toxic; IC50 (Dynamin-1; read-out: IC50): 99.5 µM
 | 70 | N=c1oc2c(O)c(O)ccc2cc1C(=O)NCCCCCCNC(=O)c1cc2ccc(O)c(O)c2oc1=N | 
< 50 | > 300 | N=c1oc2ccccc2cc1C(=O)NCCNC(=O)c1cc2ccccc2oc1=N | 
< 50 |  | N=c1oc2c(O)cccc2cc1C(=O)NCCCCNC(=O)c1cc2cccc(O)c2oc1=N | 
 | 44 | COc1ccc(/C=C(\C#N)C(=O)NCCCNC(=O)/C(C#N)=C/c2ccc(O)c(O)c2)cc1OC | 
 | 6.4 | N#C/C(=C\c1ccc(N=[N+]=[N-])cc1)C(=O)NCCCNC(=O)/C(C#N)=C/c1ccc(O)c(O)c1 | 
< 50 |  | N=c1oc2cc(O)ccc2cc1C(=O)NCCCCCCNC(=O)c1cc2ccc(O)cc2oc1=N | 
< 50 | > 300 | N=c1oc2ccccc2cc1C(=O)NCCCCCCNC(=O)c1cc2ccccc2oc1=N | 
 | 6 | N=c1oc2cc(O)c(O)cc2cc1C(=O)NCCNC(=O)c1cc2cc(O)c(O)cc2oc1=N | 
 | 4.3 | N=c1oc2c(O)c(O)ccc2cc1C(=O)NCCCCNC(=O)c1cc2ccc(O)c(O)c2oc1=N | 

SMILES | inhibition (Ovis aries [1]) [%] | IC50 [2] [µM] | also measured
N#C/C(=C\c1ccc(O)c(O)c1)C(=O)NCCCNC(=O)/C(C#N)=C/c1ccc(O)c(O)c1 |  | 1.7 | 
